Source: patent US9290459B1, “Substituted bicyclic dihydropyrimidinones and their use as inhibitors of neutrophil elastase activity” (Boehringer Ingelheim International GmbH, priority 2013, dated 2016)
Converted amounts (≈) assume the structure as drawn. Where two headings read alike, the source gives them in different places. One block for each compound: values may come before it.

Columns and labels:
[1] = Metabolic stability with human liver microsomes; assay type: in vitro ADME; settings: for half-life at 1 μM: pH 7.6
[2] = target: neutrophil elastase in human plasma (Homo sapiens (Human), UniProt P08246); assay: Neutrophil elastase inhibitory activity in human plasma (zymosan-stimulated blood); assay type: biochemical; settings: neutrophil elastase enriched human plasma from zymosan-stimulated blood; read-out: EC50
Chain of neutrophil elastase in human plasma (P08246 30-247): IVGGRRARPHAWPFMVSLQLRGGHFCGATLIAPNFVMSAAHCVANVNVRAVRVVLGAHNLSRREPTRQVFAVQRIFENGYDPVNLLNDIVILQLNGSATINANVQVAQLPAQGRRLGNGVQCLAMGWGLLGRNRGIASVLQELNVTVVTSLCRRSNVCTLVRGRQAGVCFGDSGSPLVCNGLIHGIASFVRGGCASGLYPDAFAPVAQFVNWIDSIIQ

[3] = target: Human neutrophil elastase (Homo sapiens (Human), UniProt P08246); assay: Human Neutrophil Elastase Assay; assay type: biochemical; settings: human neutrophil elastase, substrate MeOSuc-Ala-Ala-Pro-Val-AMC 250 μM, pH 7.5; read-out: IC50
Chain of Human neutrophil elastase (P08246 30-247): as above

Aqueous solubility = assay type: physicochemical; settings: McIlvaine buffer pH 6.8, 2.5% DMSO, 24 h shaking; for solubility at 24 h: McIlvaine buffer pH 6.8 with 2.5% DMSO, pH 6.8, aqueous buffer, kinetic from dmso stock
Method: Assay for Determination of Aqueous Solubility […] After 24 h of shaking, the solutions or suspensions are filtered and analyzed by LC-UV. The amount dissolved in buffer is compared to the amount dissolved in the acetonitrile/water (1/1) solution.

[4] = Drug transport across human Caco-2 cells; assay type: in vitro ADME; settings: human; for Papp A→B at 10 µM / Papp B→A at 10 µM: Caco-2, pH 7.2, Caco-2 monolayers, pH 7.2, 37° C.; for Papp A→B at 10 µM: apical-to-basal, read-out: PEAB; for Papp B→A at 10 µM: basal-to-apical, read-out: PEBA; for efflux ratio at 10 μM: Caco-2, pH 7.2, PEBA/PEAB, Caco-2
[5] = pooled human liver microsomes, 1 mg/ml protein, 1 μM test compound, 37° C., NADPH

SMILES: CCS(=O)(=O)c1cc(C#N)ccc1[C@H]1NC(=O)N(c2cccc(C(F)(F)F)c2)C2=C1C(=O)CC2 [Example 14A, (S)-4-(2,5-Dioxo-1-(3-(trifluoromethyl)phenyl)-2,3,4,5,6,7-hexahydro-1H-cyclopenta[d]pyrimidin-4-yl)-3-(ethylsulfonyl)benzonitrile]
- half-life at 1 μM ([1]; human, microsomes): > 2.17 h
- EC50 [2]: 1 nM
- IC50 [3]: 1.2 nM
- solubility at 24 h (Aqueous solubility): 62 µg/mL (≈ 127 µM)
- Papp A→B at 10 µM [4]: 10.3 ×10⁻⁶ cm/s
- Papp B→A at 10 µM [4]: 94.8 ×10⁻⁶ cm/s
- efflux ratio at 10 μM [4]: 9.2

SMILES: CS(=O)(=O)c1cc(C#N)ccc1[C@H]1NC(=O)N(c2cccc(C(F)F)c2)C2=C1C(=O)CC2 [Example 15.4A, (S)-4-(1-(3-(Difluoromethyl)phenyl)-2,5-dioxo-2,3,4,5,6,7-hexahydro-1H-cyclopenta[d]pyrimidin-4-yl)-3-(methylsulfonyl)benzonitrile]
- half-life at 1 μM ([1]; human, microsomes): > 2.17 h
- EC50 [2]: 2 nM
- IC50 [3]: 2.9 nM
- solubility at 24 h (Aqueous solubility): 69 µg/mL (≈ 151 µM)
- Papp A→B at 10 µM [4]: 3 ×10⁻⁶ cm/s
- Papp B→A at 10 µM [4]: 46 ×10⁻⁶ cm/s
- efflux ratio at 10 μM [4]: 15

SMILES: CS(=O)(=O)c1cc(C#N)ccc1C1C2=C(CCC2=O)N(c2cccc(C(F)(F)F)c2)C(=O)N1CC(=O)O (stereo not drawn) [Example 19, 2-(4-(4-Cyano-2-(methylsulfonyl)phenyl)-2,5-dioxo-1-(3-(trifluoromethyl)phenyl)-6,7-dihydro-1H-cyclopenta[d]pyrimidin-3(2H,4H,5H)-yl)acetic acid]
- half-life at 1 μM ([1]; human, microsomes): > 2.17 h
- EC50 [2]: 2 nM
- IC50 [3]: 1.3 nM
- solubility at 24 h (Aqueous solubility): 89 µg/mL (≈ 167 µM)

SMILES: CN(CCO)C(=O)CN1C(=O)N(c2cccc(C(F)(F)F)c2)C2=C(C(=O)CC2)C1c1ccc(C#N)cc1S(C)(=O)=O (stereo not drawn) [Example 21, 2-(4-(4-Cyano-2-(methylsulfonyl)phenyl)-2,5-dioxo-1-(3-(trifluoromethyl)phenyl)-6,7-dihydro-1H-cyclopenta[d]pyrimidin-3(2H,4H,5H)-yl)-N-(2-hydroxyethyl)-N-methyl-acetamide]
- half-life at 1 μM ([1]; human, microsomes): > 2.17 h
- EC50 [2]: 1 nM
- IC50 [3]: < 1 nM
- solubility at 24 h (Aqueous solubility): 87 µg/mL (≈ 147 µM)

SMILES: CCN1C(=O)N(c2cccc(C(F)(F)F)c2)C2=C(C(=O)CC2)C1c1ccc(C#N)cc1S(C)(=O)=O (stereo not drawn) [Example 24, 4-(3-Ethyl-2,5-dioxo-1-(3-(trifluoromethyl)phenyl)-2,3,4,5,6,7-hexahydro-1H-cyclopenta[d]pyrimidin-4-yl)-3-(methylsulfonyl)benzonitrile]
- half-life at 1 μM ([1]; human, microsomes): > 2.17 h
- EC50 [2]: 2 nM
- IC50 [3]: 1.6 nM
- Papp A→B at 10 µM [4]: 62.5 ×10⁻⁶ cm/s
- Papp B→A at 10 µM [4]: 85.6 ×10⁻⁶ cm/s
- efflux ratio at 10 μM [4]: 1.4

SMILES: CN1C(=O)N(c2cccc(C(F)F)c2)C2=C(C(=O)CC2)[C@H]1c1ccc(C#N)cc1 [Example 26A, (R)-4-(1-(3-(Difluoromethyl)phenyl)-3-methyl-2,5-dioxo-2,3,4,5,6,7-hexahydro-1H-cyclopenta[d]pyrimidin-4-yl)benzonitrile]
- half-life at 1 μM ([1]; human, microsomes): > 2.17 h
- EC50 [2]: 2 nM
- IC50 [3]: 2.4 nM
- solubility at 24 h (Aqueous solubility): 41 µg/mL (≈ 104 µM)
- Papp A→B at 10 µM [4]: 72 ×10⁻⁶ cm/s
- Papp B→A at 10 µM [4]: 76 ×10⁻⁶ cm/s
- efflux ratio at 10 μM [4]: 1.1

SMILES: CS(=O)(=O)N1C(=O)N(c2cccc(C(F)(F)F)c2)C2=C(C(=O)CC2)C1c1ccc(C#N)cc1Cl (stereo not drawn) [Example 37.2]
- EC50 [2]: 17 nM
- IC50 [3]: 9.3 nM
- Papp A→B at 10 µM [4]: 84.9 ×10⁻⁶ cm/s
- Papp B→A at 10 µM [4]: 99.8 ×10⁻⁶ cm/s
- efflux ratio at 10 μM [4]: 1.2

SMILES: CCS(=O)(=O)c1cc(C#N)ccc1C1C2=C(CCC2=O)N(c2cccc(C(F)(F)F)c2)C(=O)N1S(C)(=O)=O (stereo not drawn) [Example 37.4]
- half-life at 1 μM ([1]; human, microsomes): > 2.17 h
- IC50 [3]: 1.7 nM
- solubility at 24 h (Aqueous solubility): 21 µg/mL (≈ 37 µM)

SMILES: N#Cc1ccc([C@@H]2C3=C(CCC3=O)N(c3cccc(C(F)(F)F)c3)C(=O)N2C(=O)NC2CCS(=O)(=O)CC2)cc1 [Example 46, (R)-4-(4-Cyanophenyl)-2,5-dioxo-N-(1,1-dioxo-hexahydro-1λ^6-thiopyran-4-yl)-1-(3-(trifluoromethyl)phenyl)-4,5,6,7-tetrahydro-1H-cyclopenta[d]pyrimidine-3(2H)-carboxamide]
- t1/2 INVITRO [1, 5]: >2.17 h
- Aqueous solubility (Aqueous solubility): 10 µg/mL

Continued, values first:

- t1/2 INVITRO [1, 5]: >2.17 h
- EC50 [2]: < 1 nM
- IC50 [3]: 3.3 nM
- Aqueous solubility (Aqueous solubility): 44 µg/mL
SMILES: CCNC(=O)N1C(=O)N(c2ccnc(C(F)(F)F)c2)C2=C(C(=O)CC2)C1c1ccc(C#N)cc1 (racemic) [Example 54.2]

- half-life at 1 μM ([1]; human, microsomes): > 2.17 h
- IC50 [3]: 43.6 nM
- solubility at 24 h (Aqueous solubility): 76 µg/mL (≈ 160 µM)
SMILES: CS(=O)(=O)c1cc(C#N)ccc1C1NC(=O)N(c2ccnc(C(F)(F)F)c2)C2=C1C(=O)CC2 (stereo not drawn) [Example 15.6, 4-(2,5-dioxo-1-(2-(trifluoromethyl)pyridin-4-yl)-2,3,4,5,6,7-hexahydro-1H-cyclopenta[d]-pyrimidin-4-yl)-3-(methylsulfonyl)benzonitrile]

- half-life at 1 μM ([1]; human, microsomes): > 2.17 h
- EC50 [2]: 23 nM
- IC50 [3]: 25.6 nM
- solubility at 24 h (Aqueous solubility): 13 µg/mL (≈ 29.8 µM)
- Papp A→B at 10 µM [4]: 36.5 ×10⁻⁶ cm/s
- Papp B→A at 10 µM [4]: 54.5 ×10⁻⁶ cm/s
- efflux ratio at 10 μM [4]: 1.5
SMILES: N#CCN1C(=O)N(c2cccc(C(F)(F)F)c2)C2=C(C(=O)CC2)C1c1ccc(C#N)cc1 (stereo not drawn) [Example 22, 4-(3-(Cyanomethyl)-2,5-dioxo-1-(3-(trifluoromethyl)phenyl)-2,3,4,5,6,7-hexahydro-1H-cyclopenta[d]pyrimidin-4-yl)benzonitrile]

- half-life at 1 μM ([1]; human, microsomes): > 2.17 h
- EC50 [2]: 13 nM
- IC50 [3]: 26.8 nM
- solubility at 24 h (Aqueous solubility): 41 µg/mL (≈ 99.4 µM)
- Papp A→B at 10 µM [4]: 67.7 ×10⁻⁶ cm/s
- Papp B→A at 10 µM [4]: 64.2 ×10⁻⁶ cm/s
- efflux ratio at 10 μM [4]: 0.9
SMILES: CN1C(=O)N(c2cccc(C(F)(F)F)c2)C2=C(C(=O)CC2)C1c1ccc(C#N)cn1 (stereo not drawn) [Example 26.1]

- half-life at 1 μM ([1]; pooled human liver microsomes, 1 mg/ml protein, 1 μM test compound, 37° C., NADPH, read-out: t1/2 INVITRO): > 2.17 h
- solubility at 24 h (Aqueous solubility): 79 µg/mL (≈ 161 µM)
- Papp A→B at 10 µM [4]: 11.8 ×10⁻⁶ cm/s
- Papp B→A at 10 µM [4]: 66.2 ×10⁻⁶ cm/s
SMILES: CN1C(=O)N(c2ccnc(C(F)(F)F)c2)C2=C(C(=O)CC2)C1c1ccc(C#N)cc1S(C)(=O)=O (stereo not drawn) [Example 29, 4-(3-Methyl-2,5-dioxo-1-(2-(trifluoromethyl)pyridin-4-yl)-2,3,4,5,6,7-hexahydro-1H-cyclopenta[d]pyrimidin-4-yl)-3-(methylsulfonyl)benzonitrile]

- half-life at 1 μM ([1]; human, microsomes): > 2.17 h
- EC50 [2]: 14 nM
- IC50 [3]: 4.2 nM
- Papp A→B at 10 µM [4]: 80.9 ×10⁻⁶ cm/s
- Papp B→A at 10 µM [4]: 69.5 ×10⁻⁶ cm/s
- efflux ratio at 10 μM [4]: 0.9
SMILES: CCOC(=O)N1C(=O)N(c2cccc(C(F)(F)F)c2)C2=C(C(=O)CC2)C1c1ccc(C#N)cc1 (stereo not drawn) [Example 31, Ethyl 4-(4-Cyanophenyl)-2,5-dioxo-1-(3-(trifluoromethyl)phenyl)-4,5,6,7-tetrahydro-1H-cyclopenta[d]pyrimidine-3(2H)-carboxylate]

- half-life at 1 μM ([1]; human, microsomes): > 2.17 h
- EC50 [2]: 7 nM
- IC50 [3]: 2.7 nM
- Papp A→B at 10 µM [4]: 56.9 ×10⁻⁶ cm/s
- Papp B→A at 10 µM [4]: 73.8 ×10⁻⁶ cm/s
- efflux ratio at 10 μM [4]: 1.3
SMILES: CCS(=O)(=O)N1C(=O)N(c2cccc(C(F)(F)F)c2)C2=C(C(=O)CC2)C1c1ccc(C#N)cc1 (stereo not drawn) [Example 35, 4-(3-(Ethylsulfonyl)-2,5-dioxo-1-(3-(trifluoromethyl)phenyl)-2,3,4,5,6,7-hexahydro-1H-cyclopenta[d]pyrimidin-4-yl)benzonitrile]

- half-life at 1 μM ([1]; human, microsomes): > 2.17 h
- solubility at 24 h (Aqueous solubility): 20 µg/mL (≈ 38.1 µM)
- Papp A→B at 10 µM [4]: 36.2 ×10⁻⁶ cm/s
- Papp B→A at 10 µM [4]: 86 ×10⁻⁶ cm/s
- efflux ratio at 10 μM [4]: 2.4
SMILES: N#Cc1ccc(C2C3=C(CCC3=O)N(c3cccc(C(F)(F)F)c3)C(=O)N2C(=O)N[C@@H]2CCC[C@H]2O)cc1 (stereo partly drawn) [Example 42.3]

- half-life at 1 μM ([1]; human, microsomes): > 2.17 h
- solubility at 24 h (Aqueous solubility): 28 µg/mL (≈ 53.4 µM)
- Papp A→B at 10 µM [4]: 38.1 ×10⁻⁶ cm/s
- Papp B→A at 10 µM [4]: 77.2 ×10⁻⁶ cm/s
- efflux ratio at 10 μM [4]: 2
SMILES: N#Cc1ccc([C@@H]2C3=C(CCC3=O)N(c3cccc(C(F)(F)F)c3)C(=O)N2C(=O)N[C@H]2CCC[C@@H]2O)cc1 [Example 45.4]

- half-life at 1 μM ([1]; human, microsomes): > 2.17 h
- EC50 [2]: 4 nM
- IC50 [3]: < 1 nM
- Papp A→B at 10 µM [4]: 83.1 ×10⁻⁶ cm/s
- Papp B→A at 10 µM [4]: 64.8 ×10⁻⁶ cm/s
- efflux ratio at 10 μM [4]: 0.8
SMILES: CNC(=O)N1C(=O)N(c2cccc(C(F)(F)F)c2)C2=C(C(=O)CC2)[C@H]1c1ccc(C#N)cc1F [Example 49A, (S)-4-(4-Cyano-2-fluorophenyl)-N-methyl-2,5-dioxo-1-(3-(trifluoromethyl)phenyl)-4,5,6,7-tetrahydro-1H-cyclopenta[d]pyrimidine-3(2H)-carboxamide]

- half-life at 1 μM ([1]; human, microsomes): > 2.17 h
- EC50 [2]: < 1 nM
- IC50 [3]: < 1 nM
- solubility at 24 h (Aqueous solubility): 91 µg/mL (≈ 195 µM)
SMILES: N#Cc1ccc(C2C3=C(CCC3=O)N(c3cccc(C(F)F)c3)C(=O)N2C(=O)NCCO)cc1 (stereo not drawn) [Example 52.3]

- half-life at 1 μM ([1]; human, microsomes): > 2.17 h
- EC50 [2]: 3 nM
- IC50 [3]: 6.1 nM
SMILES: CC(C)(O)CNC(=O)N1C(=O)N(c2ccnc(C(F)(F)F)c2)C2=C(C(=O)CC2)C1c1ccc(C#N)cc1 (stereo not drawn) [Example 55, 4-(4-Cyanophenyl)-N-(2-hydroxy-2-methylpropyl)-2,5-dioxo-1-(2-(trifluoromethyl)-pyridin-4-yl)-4,5,6,7-tetrahydro-1H-cyclopenta[d]pyrimidine-3(2H)-carboxamide]
